# Data taken from patent US6642411B1, “Compounds and compositions for delivering active agents” (Emisphere Technologies, Inc., priority 1998, dated 2003).
# Where two headings read alike, the source gives them in different places.
# Experiment: Solubility of the carrier compound
# Format: physicochemical
"solubility (aqueous NaOH solution, aqueous buffer, thermodynamic from solid, 200 mg+350 μl 2N NaOH+650 μl H2O, pH 7.67, read-out: Solubility) [mg/mL]","solubility (clear solution, pH=6.85) [mg/mL]",Compound
200,–,"CC(C(=O)O)c1ccc(NC(=O)c2ccccc2O)cc1 (centres unmarked) [Example 1, 2-(4-(N-salicyloyl)aminophenyl)propionic acid]"
–,200,"CC(C(=O)[O-])c1ccc(NC(=O)c2ccccc2O)cc1.[Na+] (centres unmarked) [Example 2, sodium 2-(4-(N-salicyloyl)aminophenyl)propionate]"
